As usually defined, the IC50 is the point on the concentration scale where inhibition reaches its midpoint.

Our source for the IC50 values is US10005767B2, “Compositions and methods for inhibition of the JAK pathway” (Rigel Pharmaceuticals, Inc., priority 2009, dated 2018).

One assay relates to human primary T-cells, IL-2 stimulated proliferation (JAK-1 and JAK-3 dependent; reported as JAK3 activity). Put plainly: Human primary T-cell proliferation stimulated by IL-2 (Example 3). Type of assay: cell-based. As to conditions: Homo sapiens, T-cell, tested under conditions described in Example 3 (IL-2 stimulated human primary T-cell proliferation); read-out: ability to inhibit JAK3 activity, IC50 range (Table V). The procedure, abridged: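 Peripheral-blood human T-cells pre-activated via TCR/CD28, IL-2-starved overnight, then cultured 72 h at 37 °C with compound in Yssel's medium containing IL-2 (80 U/mL in cell suspension). Proliferation read as viable-cell ATP by CellTiter-Glo luminescence; reduction versus control taken as JAK pathway inhibition.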
`Cc1cnc(Nc2cnc(N3CC4CN(CC5CC5)CC4C3)c(F)c2)nc1Nc1ccc2oc(=O)[nH]c2c1` (centres unmarked) [II-52, 5-{2-[6-(5-Cyclopropylmethyl-hexahydro-pyrrolo[3,4-c]pyrrol-2-yl)-5-fluoro-pyridin-3-ylamino]-5-methyl-pyrimidin-4-ylamino}-3H-benzooxazol-2-one]: the IC50 is under 500 nM.
On the same count and under the same terms, as for `Cc1cnc(Nc2cc(F)c(F)c(F)c2F)nc1Nc1ccc2oc(=O)[nH]c2c1` [Compound I-477, 5-[5-Methyl-2-(2,3,4,5-tetrafluoro-phenylamino)-pyrimidin-4-ylamino]-3H-benzooxazol-2-one], the figure is 500 to 5000 nM; as for `Cc1cnc(Nc2cccc(C(C)N3CCOCC3)c2)nc1Nc1ccc2oc(=O)[nH]c2c1` (centres unmarked) [Compound I-217, 5-(5-methyl-2-(3-(1-morpholinoethyl)phenylamino)pyrimidin-4-ylamino)benzo[d]oxazol-2(3H)-one], under 500 nM.
Same read-out and setting: the figure for `Cc1cnc(Nc2cc(F)cc(F)c2F)nc1Nc1ccc2oc(=O)[nH]c2c1` [Compound I-480, 5-[5-Methyl-2-(2,3,5-trifluoro-phenylamino)-pyrimidin-4-ylamino]-3H-benzooxazol-2-one] is over 10000 nM.
Same read-out and setting: as for `Cc1cnc(Nc2ccc3c(c2)NC(=O)CC3)nc1Nc1ccc2oc(=O)[nH]c2c1` [IV-24, 5-(5-methyl-2-(2-oxo-1,2,3,4-tetrahydroquinolin-7-ylamino)pyrimidin-4-ylamino)benzo[d]oxazol-2(3H)-one], the figure is under 500 nM.
Take `COc1cc(Nc2ncc(C)c(Nc3ccc4oc(=O)[nH]c4c3)n2)cc2ccccc12` [IV-55, 5-[2-(4-Methoxy-naphthalen-2-ylamino)-5-methyl-pyrimidin-4-ylamino]-3H-benzooxazol-2-one]: the IC50 is under 500 nM.
In the case of `Cc1cnc(Nc2ccc(Br)c(C(F)(F)F)c2)nc1Nc1ccc2oc(=O)[nH]c2c1` [Compound I-188, 5-[2-(4-Bromo-3-trifluoromethyl-phenylamino)-5-methyl-pyrimidin-4-ylamino]-3H-benzooxazol-2-one], the IC50 is under 500 nM.
Turning to `Cc1cnc(Nc2ccc(O)c(Cl)c2)nc1Nc1ccc2oc(=O)[nH]c2c1` [Compound I-424, 5-[2-(3-Chloro-4-hydroxy-phenylamino)-5-methyl-pyrimidin-4-ylamino]-3H-benzooxazol-2-one], the IC50 was under 500 nM.
Same read-out and setting: as for `Cc1cnc(Nc2cc(OCC3CC3)cc(C(F)(F)F)c2)nc1Nc1ccc2oc(=O)[nH]c2c1` [Compound I-225, 5-(2-(3-(cyclopropylmethoxy)-5-(trifluoromethyl)phenylamino)-5-methylpyrimidin-4-ylamino)benzo[d]oxazol-2(3H)-one], the figure is 500 to 5000 nM; as for `Cc1cnc(Nc2cc(Cl)cc(Cl)c2)nc1Nc1ccc2oc(=O)[nH]c2c1` [Compound I-184, 5-[2-(3,5-Dichloro-phenylamino)-5-methyl-pyrimidin-4-ylamino]-3H-benzooxazol-2-one], under 500 nM.
Same read-out and setting: the figure for `Cc1cnc(Nc2ccc(N3CCN(CC4CC4)[C@H](C)C3)nc2)nc1Nc1ccc2oc(=O)[nH]c2c1` [II-56, (R)-5-(2-(6-(4-(cyclopropylmethyl)-3-methylpiperazin-1-yl)pyridin-3-ylamino)-5-methylpyrimidin-4-ylamino)benzo[d]oxazol-2(3H)-one] is under 500 nM.
For `Cc1cnc(Nc2cccc(C)c2F)nc1Nc1ccc2oc(=O)[nH]c2c1` [Compound I-513, 5-(2-(2-fluoro-3-methylphenylamino)-5-methylpyrimidin-4-ylamino)benzo[d]oxazol-2(3H)-one], the IC50 is under 500 nM.
As for `Cc1cnc(Nc2cnc(N3CCN4CCC3CC4)c(Cl)c2)nc1Nc1ccc2oc(=O)[nH]c2c1` [II-150, 5-(2-(6-(1,4-diazabicyclo[3.2.2]nonan-4-yl)-5-chloropyridin-3-ylamino)-5-methylpyrimidin-4-ylamino)benzo[d]oxazol-2(3H)-one], the IC50 was under 500 nM.
Regarding `Cc1cnc(Nc2ccc(N3CCC(C)CC3)nc2)nc1Nc1ccc2oc(=O)[nH]c2c1` [II-6, N4-(benzo[d]oxazol-2(3H)-on-5-yl)-N2-(6-(4-methylpiperidin-1-yl)pyridin-3-yl)-5-methylpyrimidine-2,4-diamine], the IC50 was over 10000 nM.
Same read-out and setting: the figure for `Cc1ccc(Nc2ncc(C)c(Nc3ccc4oc(=O)[nH]c4c3)n2)cc1C(F)(F)F` [Compound I-154, 5-[5-Methyl-2-(4-methyl-3-trifluoromethyl-phenylamino)-pyrimidin-4-ylamino]-3H-benzooxazol-2-one] is under 500 nM; for `Cc1cnc(Nc2ccc3c(c2)CN(CCC(C)C)C3)nc1Nc1ccc2oc(=O)[nH]c2c1` [III-9, N4-(benzo[d]oxazol-2(3H)-on-5-yl)-N2-(2-isopentylisoindolin-5-yl)-5-methylpyrimidine-2,4-diamine] it is under 500 nM; for `Cc1cnc(Nc2ccc(N[C@@H]3CCCNC3)nc2)nc1Nc1ccc2oc(=O)[nH]c2c1` [II-107, (R)-5-(5-methyl-2-(6-(piperidin-3-ylamino)pyridin-3-ylamino)pyrimidin-4-ylamino)benzo[d]oxazol-2(3H)-one] it is under 500 nM.
The same measure, in the same setting: as for `CCc1ccccc1Nc1ncc(C)c(Nc2ccc3oc(=O)[nH]c3c2)n1` [Compound I-502, 5-(2-(2-ethylphenylamino)-5-methylpyrimidin-4-ylamino)benzo[d]oxazol-2(3H)-one], the figure is 500 to 5000 nM.

The assay is the same for the next values; noted with them: tested under conditions described in Example 3 (IL-2 stimulated human primary T-cell proliferation); read-out: ability to inhibit JAK3 activity, IC50 range (Table V).
Consider `Cc1cnc(Nc2ccc(S(N)(=O)=O)cc2)nc1Nc1ccc2c(c1)n(C)c(=O)n2C` [Compound I-35, N4-(1,3-dimethylbenzimidazolin-2-on-5-yl)-N2-((4-aminosulfonyl)phenyl)-5-methylpyrimidine-2,4-diamine], for which the IC50 is over 10000 nM.
Consider `Cn1c(=O)oc2ccc(Nc3nc(Nc4ccc(S(C)(=O)=O)cc4)ncc3F)cc21` [Compound I-78, N2-((4-methylsulfonyl)phenyl)-N4-(3-methyl-2-oxo-2,3-dihydrobenzo[d]oxazol-5-yl)-5-fluoropyrimidine-2,4-diamine], for which the IC50 is 500 to 5000 nM.
On the same count and under the same terms, the figure for `Cc1cnc(Nc2ccc(F)c(C#N)c2)nc1Nc1ccc2oc(=O)[nH]c2c1` [Compound I-294, N2-(3-cyano-4-fluoro)phenyl-5-methyl-N4-(2-oxo-2,3-dihydro-1,3-benzoxazol-5-yl)-2,4-pyrimidinediamine] is under 500 nM; for `CCCn1c(=O)oc2ccc(Nc3nc(Nc4ccc(NS(C)(=O)=O)cc4)ncc3C)cc21` [Compound I-8, N4-(3-n-propylbenzo[d]oxazol-2(3H)-on-5-yl)-N2-((4-methylsulfonylamino)phenyl)-5-methylpyrimidine-2,4-diamine] it is under 500 nM; for `COc1cccc(Nc2ncc(C)c(Nc3ccc4oc(=O)[nH]c4c3)n2)c1C` [Compound I-328, N2-(3-methoxy-2-methyl)phenyl-5-methyl-N4-(2-oxo-2,3-dihydro-1,3-benzoxazol-5-yl)-2,4-pyrimidinediamine] it is 500 to 5000 nM.
On the same count and under the same terms, the figure for `Cn1c(=O)oc2cc(Nc3nc(Nc4cccc(NS(C)(=O)=O)c4)ncc3F)ccc21` [Compound I-61, N2-((3-methylsulfonylamino)phenyl)-N4-(3-methyl-2-oxo-2,3-dihydrobenzo[d]oxazol-6-yl)-5-fluoropyrimidine-2,4-diamine] is under 500 nM.
On the same count and under the same terms, the figure for `COCCCOc1ccc(Nc2ncc(C)c(Nc3ccc4oc(=O)[nH]c4c3)n2)cn1` [II-149, N2-[2-(3-methoxy)propoxypyridin-5-yl]-5-methyl-N4-(2-oxo-2,3-dihydro-1,3-benzoxazol-5-yl)-2,4-pyrimidinediamine] is under 500 nM; for `Cn1c(=O)oc2ccc(Nc3nc(Nc4ccc(NS(C)(=O)=O)cc4)ncc3F)cc21` [Compound I-80, N2-((4-methylsulfonylamino)phenyl)-N4-(3-methyl-2-oxo-2,3-dihydrobenzo[d]oxazol-5-yl)-5-fluoropyrimidine-2,4-diamine] it is under 500 nM; for `Cc1cnc(Nc2cc(C)c(F)c(C)c2)nc1Nc1ccc2oc(=O)n(COP(=O)(OC(C)(C)C)OC(C)(C)C)c2c1` [Compound I-450, N4-{3-[bis(1,1-dimethylethoxy)]phosphinyloxymethyl-2-oxo-2,3-dihydro-1,3-benzoxazol-5-yl}-N2-(3,5-dimethyl-4-fluoro)phenyl-5-methyl-2,4-pyrimidinediamine] it is over 10000 nM.
For `Cc1cnc(Nc2cccc(S(N)(=O)=O)c2)nc1Nc1ccc2[nH]c(=O)oc2c1` [Compound I-98, N2-((3-aminosulfonyl)phenyl)-N4-(2-oxo-2,3-dihydrobenzo[d]oxazol-6-yl)-5-methylpyrimidine-2,4-diamine], the IC50 was under 500 nM.
The same measure, in the same setting: as for `COCCOc1cc(Nc2ncc(C)c(Nc3ccc4oc(=O)[nH]c4c3)n2)ccc1OC` [Compound I-292, N2-[4-methoxy-3-(2-methoxyethoxy)]phenyl-5-methyl-N4-(2-oxo-2,3-dihydro-1,3-benzoxazol-5-yl)-2,4-pyrimidinediamine], the figure is under 500 nM.
On the same count and under the same terms, as for `Cc1cnc(Nc2ccc(N(C)S(C)(=O)=O)cc2)nc1Nc1ccc2oc(=O)[nH]c2c1` [Compound I-93, N2-((4-methylsulfonyl-N-methylamino)phenyl)-N4-(2-oxo-2,3-dihydrobenzo[d]oxazol-5-yl)-5-methylpyrimidine-2,4-diamine], the figure is under 500 nM; as for `Cc1ccc(Nc2ncc(C)c(Nc3ccc4oc(=O)[nH]c4c3)n2)cc1S(N)(=O)=O` [Compound I-24, N4-(benzo[d]oxazol-2(3H)-on-5-yl)-N2-((3-aminosulfonyl-4-methyl)phenyl)-5-methylpyrimidine-2,4-diamine], under 500 nM; as for `CCOc1cc(Nc2ncc(C)c(Nc3ccc4oc(=O)[nH]c4c3)n2)ccc1OC(F)F` [Compound I-313, N2-(4-difluoromethoxy-3-ethoxy)phenyl-5-methyl-N4-(2-oxo-2,3-dihydro-1,3-benzoxazol-5-yl)-2,4-pyrimidinediamine], under 500 nM.
